Laboratory results published in the NIST ThermoML archive (doi:10.1016/j.jct.2016.08.001).

Key:
[1] = xn = mol fraction of the nth substance listed; conditions: 100 kPa, Liquid; for speed of sound: Frequency=3 MHz, Sing-around technique in a fixed-path interferometer; for mass density: Vibrating tube method
[2] = refractive index (Na D-line) (dimensionless); xn = mol fraction of the nth substance listed; conditions: 100 kPa, Liquid, Standard Abbe refractometry

Nc1ccccc1 [aniline] + CCOC(=O)OCC
Conditions	mass density, [1] [kg/m3]	refractive index, [2]	speed of sound, [1] [m/s]
298.15 K, x2 = 0	1017.1	1.5826	1636.8
298.15 K, x2 = 0.073	1014.2	1.5649	1594.4
298.15 K, x2 = 0.1652	1010.2	1.5435	1543.3
298.15 K, x2 = 0.2537	1006.4	1.5237	1497.7
298.15 K, x2 = 0.3387	1002.6	1.5053	1455.9
298.15 K, x2 = 0.4432	998	1.4835	1407.9
298.15 K, x2 = 0.5468	993	1.4626	1361.3
298.15 K, x2 = 0.6546	987.7	1.4419	1316
298.15 K, x2 = 0.7559	982.5	1.4235	1274.2
298.15 K, x2 = 0.884	975.9	1.4016	1222.6
303.15 K, x2 = 0	1012.7	1.5793	1617.5
303.15 K, x2 = 0.073	1009.8	1.562	1575.1
303.15 K, x2 = 0.1652	1005.7	1.5408	1523.9
303.15 K, x2 = 0.2537	1001.8	1.5212	1478.3
303.15 K, x2 = 0.3387	997.9	1.5029	1436.4
303.15 K, x2 = 0.4432	993.2	1.4813	1388.2
303.15 K, x2 = 0.5468	988.1	1.4606	1341.5
303.15 K, x2 = 0.6546	982.6	1.4401	1296
303.15 K, x2 = 0.7559	977.3	1.4216	1254.1
303.15 K, x2 = 0.884	970.5	1.3995	1202.3
308.15 K, x2 = 0	1008.4	1.576	1598.3
308.15 K, x2 = 0.073	1005.4	1.559	1555.8
308.15 K, x2 = 0.1652	1001.2	1.538	1504.6
308.15 K, x2 = 0.2537	997.1	1.5187	1458.5
308.15 K, x2 = 0.3387	993.2	1.5006	1416.8
308.15 K, x2 = 0.4432	988.3	1.4791	1368.5
308.15 K, x2 = 0.5468	983.1	1.4586	1321.7
308.15 K, x2 = 0.6546	977.5	1.4381	1276
308.15 K, x2 = 0.7559	972	1.4196	1234.1
308.15 K, x2 = 0.884	965.1	1.3974	1182.1
313.15 K, x2 = 0	1004.1	1.5727	1579.1
313.15 K, x2 = 0.073	1001	1.556	1536.6
313.15 K, x2 = 0.1652	996.6	1.5354	1485.3
313.15 K, x2 = 0.2537	992.5	1.5162	1439.1
313.15 K, x2 = 0.3387	988.5	1.4983	1397.4
313.15 K, x2 = 0.4432	983.5	1.477	1349
313.15 K, x2 = 0.5468	978.1	1.4566	1302
313.15 K, x2 = 0.6546	972.4	1.4362	1256.3
313.15 K, x2 = 0.7559	966.8	1.4176	1214.2
313.15 K, x2 = 0.884	959.8	1.3954	1162.1
318.15 K, x2 = 0	999.7	1.5694	1560
318.15 K, x2 = 0.073	996.5	1.5531	1517.6
318.15 K, x2 = 0.1652	992.1	1.5327	1466
318.15 K, x2 = 0.2537	987.9	1.5137	1419.8
318.15 K, x2 = 0.3387	983.7	1.496	1378
318.15 K, x2 = 0.4432	978.6	1.4749	1329.5
318.15 K, x2 = 0.5468	973.1	1.4545	1282.5
318.15 K, x2 = 0.6546	967.2	1.4343	1236.6
318.15 K, x2 = 0.7559	961.4	1.4156	1194.5
318.15 K, x2 = 0.884	954.3	1.3933	1142.2
323.15 K, x2 = 0	995.4	1.5661	1540.9
323.15 K, x2 = 0.073	992.1	1.5501	1498.2
323.15 K, x2 = 0.1652	987.6	1.5302	1446.8
323.15 K, x2 = 0.2537	983.2	1.5113	1400.5
323.15 K, x2 = 0.3387	979	1.4937	1358.7
323.15 K, x2 = 0.4432	973.7	1.4728	1310.1
323.15 K, x2 = 0.5468	968.1	1.4525	1263
323.15 K, x2 = 0.6546	962	1.4323	1217.1
323.15 K, x2 = 0.7559	956.1	1.4138	1174.9
323.15 K, x2 = 0.884	948.8	1.3913	1122.5

O=Cc1ccccc1 [benzaldehyde] + CCOC(=O)OCC
Conditions	mass density, [1] [kg/m3]	refractive index, [2]	speed of sound, [1] [m/s]
298.15 K, x2 = 0	1041	1.541	1457.3
298.15 K, x2 = 0.0933	1035	1.5244	1430.7
298.15 K, x2 = 0.1658	1030.2	1.5118	1409
298.15 K, x2 = 0.267	1023.4	1.4947	1379.1
298.15 K, x2 = 0.36	1016.9	1.4794	1352.5
298.15 K, x2 = 0.4554	1010.4	1.4638	1325.4
298.15 K, x2 = 0.5605	1003	1.4472	1296.3
298.15 K, x2 = 0.6547	996.2	1.4325	1269.8
298.15 K, x2 = 0.7716	987.4	1.415	1238.2
298.15 K, x2 = 0.8473	981.4	1.4039	1217
303.15 K, x2 = 0	1036.5	1.5383	1438.9
303.15 K, x2 = 0.0933	1030.6	1.522	1412.1
303.15 K, x2 = 0.1658	1025.7	1.5094	1389.9
303.15 K, x2 = 0.267	1018.7	1.4924	1359.9
303.15 K, x2 = 0.36	1012.2	1.4771	1333.1
303.15 K, x2 = 0.4554	1005.4	1.4616	1305.8
303.15 K, x2 = 0.5605	997.9	1.445	1276.5
303.15 K, x2 = 0.6547	991	1.4304	1249.9
303.15 K, x2 = 0.7716	982.1	1.4129	1218.1
303.15 K, x2 = 0.8473	976	1.4017	1196.8
308.15 K, x2 = 0	1032	1.5357	1420.6
308.15 K, x2 = 0.0933	1026.2	1.5195	1393.5
308.15 K, x2 = 0.1658	1021.2	1.5071	1371.1
308.15 K, x2 = 0.267	1014.1	1.4902	1340.8
308.15 K, x2 = 0.36	1007.4	1.475	1313.8
308.15 K, x2 = 0.4554	1000.6	1.4596	1286.3
308.15 K, x2 = 0.5605	992.9	1.443	1256.9
308.15 K, x2 = 0.6547	985.8	1.4283	1230.1
308.15 K, x2 = 0.7716	976.8	1.4108	1198.1
308.15 K, x2 = 0.8473	970.7	1.3995	1176.7
313.15 K, x2 = 0	1027.5	1.5332	1402.4
313.15 K, x2 = 0.0933	1021.8	1.5171	1375
313.15 K, x2 = 0.1658	1016.7	1.5048	1352.4
313.15 K, x2 = 0.267	1009.5	1.488	1321.8
313.15 K, x2 = 0.36	1002.7	1.4728	1294.6
313.15 K, x2 = 0.4554	995.6	1.4574	1267
313.15 K, x2 = 0.5605	987.9	1.4409	1237.4
313.15 K, x2 = 0.6547	980.7	1.4262	1210.4
313.15 K, x2 = 0.7716	971.6	1.4087	1178.3
313.15 K, x2 = 0.8473	965.4	1.3973	1156.8
318.15 K, x2 = 0	1023	1.5307	1384.4
318.15 K, x2 = 0.0933	1017.3	1.515	1356.6
318.15 K, x2 = 0.1658	1012.2	1.5028	1333.8
318.15 K, x2 = 0.267	1004.9	1.486	1303.3
318.15 K, x2 = 0.36	997.9	1.4708	1275.8
318.15 K, x2 = 0.4554	990.7	1.4555	1248
318.15 K, x2 = 0.5605	982.8	1.439	1218.3
318.15 K, x2 = 0.6547	975.6	1.4242	1191.5
318.15 K, x2 = 0.7716	966.4	1.4067	1159
318.15 K, x2 = 0.8473	960.1	1.3952	1137.3
323.15 K, x2 = 0	1018.4	1.5282	1366.4
323.15 K, x2 = 0.0933	1012.8	1.5124	1339.3
323.15 K, x2 = 0.1658	1007.7	1.5003	1316.3
323.15 K, x2 = 0.267	1000.2	1.4836	1285.3
323.15 K, x2 = 0.36	993.1	1.4685	1257.7
323.15 K, x2 = 0.4554	985.8	1.4532	1229.8
323.15 K, x2 = 0.5605	977.7	1.4368	1199.9
323.15 K, x2 = 0.6547	970.4	1.4221	1173.1
323.15 K, x2 = 0.7716	961.1	1.4046	1140.6
323.15 K, x2 = 0.8473	954.8	1.3931	1118.8
